Data: patent US8772277B2, “Nitrogen-containing heterocyclic compound” (Takeda Pharmaceutical Company Limited, priority 2011, dated 2014)
Where a name gives a salt, the structure may show the parent alone.

Assays:
[1] = target: T1, GST-ERR-α ligand-binding domain (Homo sapiens, UniProt P11474); test: HTRF assay system using ERR-α ligand-binding domain (inverse agonist activity, biotinylated SRC-1 (676-700) peptide); assay type: biochemical; conditions: compound final concentration 30 μM, 665/620 ratio, no compound = 0%, 10 μM XCT-790 = 100%; for inhibition at 30 µM: read-out: inhibition rate (%) at 30 μM
T1 sequence (P11474 193-421 limits assumed): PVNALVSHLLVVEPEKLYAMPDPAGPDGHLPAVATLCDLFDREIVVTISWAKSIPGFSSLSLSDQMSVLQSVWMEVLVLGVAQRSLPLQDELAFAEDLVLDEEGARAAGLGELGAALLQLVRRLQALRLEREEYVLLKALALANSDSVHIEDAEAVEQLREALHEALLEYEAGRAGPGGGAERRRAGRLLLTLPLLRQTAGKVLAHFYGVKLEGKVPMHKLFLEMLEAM
Protocol: Experimental Example 1 Compound Evaluation in HTRF Assay System Using ERR-α Ligand-Binding Domain
An assay buffer (25 mM HEPES, 100 mM NaCl, 1 mM DTT, 0.1% BSA) containing 5 nM GST-ERR-α ligand-binding domain (final concentration 1.25 nM) was added to a 384 well plate, then 40 μM N-[5-(trifluoromethyl)-1,3,4-thiadiazol-2-yl]-2-cyano-3-[3-methoxy-4-[2,4-di(trifluoromethyl)benzyloxy]phenyl]propenamide (XCT-790) (final concentration 10 μM), or 120 μM compound (final concentration 30 μM) was added. Furthermore, an assay buffer containing XL665 conjugated Streptavidin, Eu^3+ criptate conjugated GST antibody and 200 nM biotinylated SRC-1 (676-700) (final concentration 100 nM) was added, and the mixture was reacted at room temperature for 2 hr. Using Multiplate reader Envision (Perkin Elmer Inc.), after excitation at 320 nm, fluorescence values at 620 nm and 665 nm were measured. The inverse agonist activity of the compound was calculated in percentage with the 665/620 ratio value inhibited by no addition of compound as 0%, and with addition of final concentration 10 μM of XCT-790 as 100%.

[2] = target: T2, fusion protein containing GAL4-DNA-binding domain and ERR full-length (Homo sapiens, UniProt P11474); test: Reporter assay system using 293T cells (GAL4-ERR luciferase, inverse agonist activity); assay type: cell-based; conditions: compound final concentration 3 μM, no compound = 0%, 10 μM XCT-790 = 100%; for inhibition at 3 µM: HEK-293T, read-out: inhibition rate (%) at 3 μM
T2 construct: expressed in transfected cells; host or cells: 293T cells
T2 sequence (P11474 1-423): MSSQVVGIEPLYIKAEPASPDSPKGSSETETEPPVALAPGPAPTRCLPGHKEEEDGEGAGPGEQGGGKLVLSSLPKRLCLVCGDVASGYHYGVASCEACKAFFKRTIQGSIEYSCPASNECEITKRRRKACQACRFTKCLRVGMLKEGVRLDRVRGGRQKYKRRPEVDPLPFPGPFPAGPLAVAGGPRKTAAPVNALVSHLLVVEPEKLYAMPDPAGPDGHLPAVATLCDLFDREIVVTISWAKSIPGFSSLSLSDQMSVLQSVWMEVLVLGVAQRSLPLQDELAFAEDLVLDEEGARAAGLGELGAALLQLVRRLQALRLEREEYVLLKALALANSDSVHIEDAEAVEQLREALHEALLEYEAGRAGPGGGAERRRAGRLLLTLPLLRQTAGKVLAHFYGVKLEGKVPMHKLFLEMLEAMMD
Protocol: Experimental Example 2 Compound Evaluation in Reporter Assay System Using 293T Cells
293T cells derived from human kidney were seeded in a 150 cm^2 flask by 6,000,000 cells, and cultured in a medium (DMEM medium containing 10% inactivated Fetal Bovine Serum sterile filtered (FBS), […] Gentamicin, 10 mM HEPES buffer (pH 7.4)) at 37° C. in the presence of 5% CO2 for 1 day.
Then, vector DNA having a gene encoding a fusion protein, containing GAL4-DNA-binding domain and ERR full-length and a vector DNA wherein luciferase gene is fused at the downstream of GAL4-binding-sequence were cotransfected by a lipofection method, and the cells were cultured at 37° C. in the presence of 5% CO2 for 1 day. The cells were recovered, sown in a 384 well plate by 15,000 cells, and cultured at 37° C. in the presence of 5% CO2 for 3 hrs. Furthermore, 50 μM N-[5-(trifluoromethyl)-1,3,4-thiadiazol-2-yl]-2-cyano-3-[3-methoxy-4-[2,4-di(trifluoromethyl)benzyloxy]phenyl]propenamide (XCT-790) (final concentration 10 μM) or 15 μM compound (final concentration 3 μM) was added, and the cells were cultured at 37° C. in the presence of 5% CO2 for 1 day. The luciferase activity was measured by using multiplate reader Envision (Perkin Elmer Inc.). The inverse agonist activity of the compound was calculated in percentage with the luciferase activity inhibited by no addition of compound as 0%, and with addition of final concentration 10 μM of XCT-790 as 100%.

MDA-MB-231-luc cells = test: Antitumor test using MDA-MB-231-luc cells (subcutaneous transplant); assay type: in vivo, Balb/c nu/nu mice; conditions: 50 mg/kg orally twice per day, change in tumor volume, vehicle group = 100%
Protocol: Experimental Example 3 Antitumor Test using MDA-MB-231-luc Cells
6-Week-old Balb/c nu/nu mice were transplanted subcutaneously with 5×10^6 cells/100 μL, and the mice were grouped according to the body weight and tumor volume after 1 to 2 weeks. Vehicle (0.5% MC) or a compound was administered orally to mice (6 mice per group). The administration was twice per day and performed continuously during the dosing period. Setting the change in tumor volume of the vehicle-treated group as 100%, the change rate in tumor volume of the compound-treated group (□/C %) was calculated.

SMILES	inhibition at 30 µM [1]	inhibition at 3 µM [2]	T/C (%) (MDA-MB-231-luc cells; dosing period 14 days)	T/C (%) (MDA-MB-231-luc cells; dosing period 15 days)	inhibition rate (%) at 30 μM [1]	inhibition rate (%) at 3 μM [2]
CN(C)C(=O)CNC1=NC(=O)S/C1=C\C1CCN(Cc2ccc(C(F)(F)F)cc2C(F)(F)F)CC1 [Example 108, N^2-[(5Z)-5-({1-[2,4-bis(trifluoromethyl)benzyl]piperidin-4-yl}methylidene)-2-oxo-2,5-dihydro-1,3-thiazol-4-yl]-N,N-dimethylglycinamide]	89%	81%	45%	–	–	–
CC(C)(CO)CNC1=NC(=O)S/C1=C\C1CCN(Cc2ccc(C(F)(F)F)cc2C(F)(F)F)CC1 [Example 78, (5Z)-5-({1-[2,4-bis(trifluoromethyl)benzyl]piperidin-4-yl}methylidene)-4-[(3-hydroxy-2,2-dimethylpropyl)amino]-1,3-thiazol-2(5H)-one fumarate]	–	–	11%	–	–	–
CC(C)(O)CNC1=NC(=O)S/C1=C\C1CCN(Cc2ccc(C(F)(F)F)cc2C(F)(F)F)CC1 [Example 17, (5Z)-5-({1-[2,4-bis(trifluoromethyl)benzyl]piperidin-4-yl}methylidene)-4-[(2-hydroxy-2-methylpropyl)amino]-1,3-thiazol-2(5H)-one fumarate]	106%	97%	–	40%	–	–
CN(C)C(=O)[C@@H](CO)NC1=NC(=O)S/C1=C\C1CCN(Cc2ccc(C(F)(F)F)cc2C(F)(F)F)CC1 [Example 115, N^2-[(5Z)-5-({1-[2,4-bis(trifluoromethyl)benzyl]piperidin-4-yl}methylidene)-2-oxo-2,5-dihydro-1,3-thiazol-4-yl]-N,N-dimethyl-D-serinamide]	99%	90%	55%	–	–	–
CN(C)C(=O)CCNC1=NC(=O)S/C1=C\C1CCN(Cc2ccc(C(F)(F)F)cc2C(F)(F)F)CC1 [Example 140, N^3-[(5Z)-5-({1-[2,4-bis(trifluoromethyl)benzyl]piperidin-4-yl}methylidene)-2-oxo-2,5-dihydro-1,3-thiazol-4-yl]-N,N-dimethyl-β-alaninamide]	100%	90%	–	–	–	–
CCN(CC)CCOCCNC1=NC(=O)S/C1=C\C1CCN(Cc2ccc(C(F)(F)F)cc2C(F)(F)F)CC1 [Example 47, (5Z)-5-({1-[2,4-bis(trifluoromethyl)benzyl]piperidin-4-yl}methylidene)-4-({2-[2-(diethylamino)ethoxy]ethyl}amino)-1,3-thiazol-2(5H)-one ditosylate]	108%	90%	–	–	–	–
O=C1N=C(NCCOCCO)/C(=C/C2CCN(Cc3ccc(C(F)(F)F)cc3C(F)(F)F)CC2)S1 [Example 8, (5Z)-5-({1-[2,4-bis(trifluoromethyl)benzyl]piperidin-4-yl}methylidene)-4-{[2-(2-hydroxyethoxy)ethyl]amino}-1,3-thiazol-2(5H)-one]	–	–	–	–	97%	87%
C#CCNC1=NC(=O)S/C1=C\C1CCN(Cc2ccc(C(F)(F)F)cc2Cl)CC1 [Example 59, (5Z)-5-({1-[2-chloro-4-(trifluoromethyl)benzyl]piperidin-4-yl}methylidene)-4-(prop-2-yn-1-ylamino)-1,3-thiazol-2(5H)-one fumarate]	49%	67%	–	–	–	–
CCCNC1=NC(=O)S/C1=C\C1CCN(Cc2ccc(C(F)(F)F)cc2C(F)(F)F)CC1 [Example 200, (5Z)-5-({1-[2,4-bis(trifluoromethyl)benzyl]piperidin-4-yl}methylidene)-4-(propylamino)-1,3-thiazol-2(5H)-one]	101%	88%	–	–	–	–
CC(C)(O)CNC1=NC(=O)S/C1=C\C1CCN(Cc2ccc(C(F)(F)F)cc2C(F)(F)F)CC1 [Example 31, (5Z)-5-({1-[2,4-bis(trifluoromethyl)benzyl]piperidin-4-yl}methylidene)-4-[(2-hydroxy-2-methylpropyl)amino]-1,3-thiazol-2(5H)-one]	–	–	–	–	101%	87%
